What was measured:
[1] = system: BaF3-FL KIT D816V or BaF3-FL KIT V560G/D816V cell line; experiment: Cell-based assays of c-Kit mutant kinase activity (cell growth, ATPlite); conditions: at least one of the c-kit cell assays of Example 26
How it was run: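 BaF3 cells dependent on full-length human KIT (D816V or V560G/D816V) seeded at 1×10^4 cells/well in RPMI with 10% FBS. Eight-point 1:3 dilutions from 10 μM top final (0.2% DMSO), 3 days at 37° C., 5% CO2. ATPlite luminescence gave IC50.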

[2] = molecular target: c-kit kinase (Homo sapiens (Human), UniProt P10721); experiment: c-Kit biochemical assay (AlphaScreen); conditions: c-kit biochemical inhibitory activity
Sequence of c-kit kinase (P10721 26-976): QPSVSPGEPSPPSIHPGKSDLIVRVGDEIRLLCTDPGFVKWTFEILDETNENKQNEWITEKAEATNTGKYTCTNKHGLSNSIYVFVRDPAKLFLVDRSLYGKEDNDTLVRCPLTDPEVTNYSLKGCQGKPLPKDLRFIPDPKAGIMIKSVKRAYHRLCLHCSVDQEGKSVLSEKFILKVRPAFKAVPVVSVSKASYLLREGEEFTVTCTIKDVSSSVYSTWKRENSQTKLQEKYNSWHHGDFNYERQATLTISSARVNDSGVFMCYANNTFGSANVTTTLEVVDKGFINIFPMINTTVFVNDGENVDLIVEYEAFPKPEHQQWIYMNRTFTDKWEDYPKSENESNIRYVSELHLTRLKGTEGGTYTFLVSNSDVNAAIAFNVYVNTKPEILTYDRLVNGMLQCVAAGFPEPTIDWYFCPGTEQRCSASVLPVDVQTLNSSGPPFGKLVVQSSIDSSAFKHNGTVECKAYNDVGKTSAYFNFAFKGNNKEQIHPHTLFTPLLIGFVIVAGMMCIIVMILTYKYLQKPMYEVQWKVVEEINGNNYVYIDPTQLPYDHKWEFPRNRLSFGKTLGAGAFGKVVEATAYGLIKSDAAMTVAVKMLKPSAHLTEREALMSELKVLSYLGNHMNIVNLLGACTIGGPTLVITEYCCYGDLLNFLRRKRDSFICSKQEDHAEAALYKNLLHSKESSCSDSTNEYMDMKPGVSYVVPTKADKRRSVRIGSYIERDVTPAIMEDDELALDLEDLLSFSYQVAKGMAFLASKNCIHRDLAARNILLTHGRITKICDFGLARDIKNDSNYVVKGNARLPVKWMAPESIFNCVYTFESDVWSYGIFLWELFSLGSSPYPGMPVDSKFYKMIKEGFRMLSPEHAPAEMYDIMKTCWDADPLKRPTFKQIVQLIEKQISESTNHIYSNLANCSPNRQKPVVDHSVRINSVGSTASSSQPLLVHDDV
How it was run: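 AlphaScreen of biotin-(E4Y)3 (100 nM) phosphorylation by c-kit (0.1 ng) in HEPES pH 7.2, Mg/Mn, 10 μM ATP, 5% DMSO, 1 h at room temperature; variant uses 100 μM ATP, 30 nM biotin-(E4Y)10, 1 ng enzyme. PY20 acceptor/streptavidin donor signal versus 8-point concentration gives IC50.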

| Compound | IC50 [1] [µM] | IC50 [2] [µM] |
| --- | --- | --- |
| Cc1[nH]nc(C(=O)Nc2cnc3[nH]c(-c4ccnc(N5CCN(C)CC5)c4)cc3c2)c1C [P-2069, 4,5-dimethyl-N-[2-[2-(4-methylpiperazin-1-yl)-4-pyridyl]-1H-pyrrolo[2,3-b]pyridin-5-yl]-1H-pyrazole-3-carboxamide] | < 10 | 1 to 10 |
| Cc1n[nH]c(C(=O)Nc2cnc3[nH]c(C4=CCN(C(=O)C(O)CO)CC4)cc3c2)c1C (stereo not drawn) [P-2074, N-[2-[1-(2,3-dihydroxypropanoyl)-3,6-dihydro-2H-pyridin-4-yl]-1H-pyrrolo[2,3-b]pyridin-5-yl]-3,4-dimethyl-1H-pyrazole-5-carboxamide] | < 10 | 0.0001 to 1 |
| Cc1n[nH]c(C(=O)Nc2cnc3[nH]c(-c4c(C)noc4C)cc3c2)c1C [P-2065, N-[2-(3,5-dimethylisoxazol-4-yl)-1H-pyrrolo[2,3-b]pyridin-5-yl]-3,4-dimethyl-1H-pyrazole-5-carboxamide] | < 10 | 1 to 10 |
| Cc1n[nH]c(C(=O)Nc2cnc3[nH]c(C4=CCN(C(=O)N5CCOCC5)C4)cc3c2)c1Cl [P-2062, 4-chloro-3-methyl-N-[2-[1-(morpholine-4-carbonyl)-2,5-dihydropyrrol-3-yl]-1H-pyrrolo[2,3-b]pyridin-5-yl]-1H-pyrazole-5-carboxamide] | < 10 | 0.0001 to 1 |
| CC(=O)N1CC=C(c2cc3cc(NC(=O)c4[nH]nc(C)c4Cl)cnc3[nH]2)CC1 [P-2061, N-[2-(1-acetyl-3,6-dihydro-2H-pyridin-4-yl)-1H-pyrrolo[2,3-b]pyridin-5-yl]-4-chloro-3-methyl-1H-pyrazole-5-carboxamide] | < 10 | 0.0001 to 1 |
| Cc1n[nH]c(C(=O)Nc2cnc3[nH]c(-c4cccc(N(C)C)c4)cc3c2)c1C [P-2064, N-[2-[3-(dimethylamino)phenyl]-1H-pyrrolo[2,3-b]pyridin-5-yl]-3,4-dimethyl-1H-pyrazole-5-carboxamide] | < 10 | 0.0001 to 1 |
| Cc1[nH]nc(C(=O)Nc2cnc3[nH]c(-c4cccc(N5CCOCC5)c4)cc3c2)c1C [P-2070, 4,5-dimethyl-N-[2-(3-morpholinophenyl)-1H-pyrrolo[2,3-b]pyridin-5-yl]-1H-pyrazole-3-carboxamide] | < 10 | 1 to 10 |
| Cc1n[nH]c(C(=O)Nc2cnc3[nH]c(-c4ccccc4)cc3c2)c1C [P-2007, 3,4-dimethyl-N-(2-phenyl-1H-pyrrolo[2,3-b]pyridin-5-yl)-1H-pyrazole-5-carboxamide] | < 10 | 0.0001 to 1 |
| Cc1[nH]nc(C(=O)Nc2cnc3[nH]c(-c4ccc(N5CCOCC5)cc4)cc3c2)c1C [P-2059, 4,5-dimethyl-N-[2-(4-morpholinophenyl)-1H-pyrrolo[2,3-b]pyridin-5-yl]-1H-pyrazole-3-carboxamide] | < 10 | 0.0001 to 1 |
| O=C(Nc1cnc2[nH]c(-c3ccccc3)cc2c1)c1[nH]ncc1Br [P-2005, 4-bromo-N-(2-phenyl-1H-pyrrolo[2,3-b]pyridin-5-yl)-1H-pyrazole-5-carboxamide] | < 10 | 1 to 10 |
| Cc1cc(C(=O)Nc2cnc3[nH]c(-n4cccn4)cc3c2)[nH]n1 [P-2116, 3-methyl-N-(2-pyrazol-1-yl-1H-pyrrolo[2,3-b]pyridin-5-yl)-1H-pyrazole-5-carboxamide] | < 10 | 10 to 200 |
| Cc1n[nH]c(C(=O)Nc2cnc3[nH]c(-c4cccc(N5CCCC5)c4)cc3c2)c1C [P-2079, 3,4-dimethyl-N-[2-(3-pyrrolidin-1-ylphenyl)-1H-pyrrolo[2,3-b]pyridin-5-yl]-1H-pyrazole-5-carboxamide] | < 10 | 1 to 10 |
| Cc1n[nH]c(C(=O)Nc2cnc3[nH]c(C4=CCN(C(=O)CN5CCOCC5)CC4)cc3c2)c1C [P-2073, 3,4-dimethyl-N-[2-[1-(2-morpholinoacetyl)-3,6-dihydro-2H-pyridin-4-yl]-1H-pyrrolo[2,3-b]pyridin-5-yl]-1H-pyrazole-5-carboxamide] | < 10 | 1 to 10 |
| Cc1n[nH]c(C(=O)Nc2cnc3[nH]c(C4=CCC(N)CC4)cc3c2)c1C (stereo not drawn) [P-2080, N-[2-(4-aminocyclohexen-1-yl)-1H-pyrrolo[2,3-b]pyridin-5-yl]-3,4-dimethyl-1H-pyrazole-5-carboxamide] | < 10 | 1 to 10 |
| Cc1n[nH]c(C(=O)Nc2cnc3[nH]c(-c4cccc(N5CCN(C(=O)C6CC6)CC5)c4)cc3c2)c1C [P-2118, N-[2-[3-[4-(cyclopropanecarbonyl)piperazin-1-yl]phenyl]-1H-pyrrolo[2,3-b]pyridin-5-yl]-3,4-dimethyl-1H-pyrazole-5-carboxamide] | < 10 | 10 to 200 |
| Cc1n[nH]c(C(=O)Nc2cnc3[nH]c(-n4cccn4)cc3c2)c1C [P-2112, 3,4-dimethyl-N-(2-pyrazol-1-yl-1H-pyrrolo[2,3-b]pyridin-5-yl)-1H-pyrazole-5-carboxamide] | < 10 | 1 to 10 |
| Cc1n[nH]c(C(=O)Nc2cnc3[nH]c(-c4ccc(C(=O)NC5CC5)cc4)cc3c2)c1C [P-2148, N-[2-[4-(cyclopropylcarbamoyl)phenyl]-1H-pyrrolo[2,3-b]pyridin-5-yl]-3,4-dimethyl-1H-pyrazole-5-carboxamide] | < 10 | 0.0001 to 1 |
| Cc1n[nH]c(C(=O)Nc2cnc3sc(-c4ccccc4)nc3c2)c1C [P-2144, 3,4-dimethyl-N-(2-phenylthiazolo[5,4-b]pyridin-6-yl)-1H-pyrazole-5-carboxamide] | < 10 | 1 to 10 |
| CNC(=O)c1ccc(-c2cc3cc(NC(=O)c4[nH]nc(C)c4C)cnc3[nH]2)cc1 [P-2067, 3,4-dimethyl-N-[2-[4-(methylcarbamoyl)phenyl]-1H-pyrrolo[2,3-b]pyridin-5-yl]-1H-pyrazole-5-carboxamide] | < 10 | 1 to 10 |
| Cc1n[nH]c(C(=O)Nc2cnc3[nH]c(C4=CCN(C(=O)C5CC5)C4)cc3c2)c1Cl [P-2060, 4-chloro-N-[2-[1-(cyclopropanecarbonyl)-2,5-dihydropyrrol-3-yl]-1H-pyrrolo[2,3-b]pyridin-5-yl]-3-methyl-1H-pyrazole-5-carboxamide] | < 10 | 0.0001 to 1 |
| Cc1n[nH]c(C(=O)Nc2cnc3[nH]c(-c4ccc(C#N)c(N5CCOCC5)c4)cc3c2)c1C [P-2081, N-[2-(4-cyano-3-morpholino-phenyl)-1H-pyrrolo[2,3-b]pyridin-5-yl]-3,4-dimethyl-1H-pyrazole-5-carboxamide] | < 10 | 1 to 10 |

— patent US10301280B2 (Plexxikon Inc., priority 2012, dated 2019)
